Measurements as given in the NIST ThermoML archive (doi:10.1021/je900722m).

Assay: xn = mol fraction of the nth substance listed
Conditions: 101 kPa, Liquid

CCC(C)O (configuration not stated) [butan-2-ol] + CCCCO
Conditions | mass density [kg/m3] | viscosity [mPa·s]
303.15 K, x2 = 0.1008 | 798.816 | 3.157
303.15 K, x2 = 0.2005 | 799.24 | 3.08
303.15 K, x2 = 0.3002 | 799.646 | 3.027
303.15 K, x2 = 0.4006 | 800.045 | 2.987
303.15 K, x2 = 0.5004 | 800.435 | 2.956
303.15 K, x2 = 0.6005 | 800.827 | 2.932
303.15 K, x2 = 0.6999 | 801.204 | 2.912
303.15 K, x2 = 0.7989 | 801.568 | 2.894
303.15 K, x2 = 0.8988 | 801.909 | 2.875
308.15 K, x2 = 0.1008 | 794.588 | 2.679
308.15 K, x2 = 0.2005 | 795.059 | 2.65
308.15 K, x2 = 0.3002 | 795.516 | 2.626
308.15 K, x2 = 0.4006 | 795.957 | 2.609
308.15 K, x2 = 0.5004 | 796.396 | 2.595
308.15 K, x2 = 0.6005 | 796.828 | 2.583
308.15 K, x2 = 0.6999 | 797.242 | 2.57
308.15 K, x2 = 0.7989 | 797.635 | 2.557
308.15 K, x2 = 0.8988 | 798.014 | 2.545
313.15 K, x2 = 0.1008 | 790.266 | 2.312
313.15 K, x2 = 0.2005 | 790.801 | 2.299
313.15 K, x2 = 0.3002 | 791.313 | 2.288
313.15 K, x2 = 0.4006 | 791.795 | 2.283
313.15 K, x2 = 0.5004 | 792.279 | 2.278
313.15 K, x2 = 0.6005 | 792.762 | 2.275
313.15 K, x2 = 0.6999 | 793.224 | 2.272
313.15 K, x2 = 0.7989 | 793.655 | 2.268
313.15 K, x2 = 0.8988 | 794.069 | 2.264
318.15 K, x2 = 0.1008 | 785.851 | 1.982
318.15 K, x2 = 0.2005 | 786.455 | 1.981
318.15 K, x2 = 0.3002 | 787.036 | 1.981
318.15 K, x2 = 0.4006 | 787.575 | 1.982
318.15 K, x2 = 0.5004 | 788.113 | 1.986
318.15 K, x2 = 0.6005 | 788.64 | 1.992
318.15 K, x2 = 0.6999 | 789.157 | 1.999
318.15 K, x2 = 0.7989 | 789.625 | 2.007
318.15 K, x2 = 0.8988 | 790.08 | 2.013
323.15 K, x2 = 0.1008 | 781.329 | 1.723
323.15 K, x2 = 0.2005 | 782.01 | 1.737
323.15 K, x2 = 0.3002 | 782.667 | 1.75
323.15 K, x2 = 0.4006 | 783.274 | 1.763
323.15 K, x2 = 0.5004 | 783.873 | 1.773
323.15 K, x2 = 0.6005 | 784.456 | 1.782
323.15 K, x2 = 0.6999 | 785.021 | 1.79
323.15 K, x2 = 0.7989 | 785.535 | 1.795
323.15 K, x2 = 0.8988 | 786.04 | 1.798
328.15 K, x2 = 0.1008 | 776.706 | 1.506
328.15 K, x2 = 0.2005 | 777.468 | 1.525
328.15 K, x2 = 0.3002 | 778.208 | 1.543
328.15 K, x2 = 0.4006 | 778.887 | 1.56
328.15 K, x2 = 0.5004 | 779.553 | 1.576
328.15 K, x2 = 0.6005 | 780.198 | 1.59
328.15 K, x2 = 0.6999 | 780.817 | 1.602
328.15 K, x2 = 0.7989 | 781.386 | 1.612
328.15 K, x2 = 0.8988 | 781.936 | 1.621
333.15 K, x2 = 0.1008 | 771.968 | 1.327
333.15 K, x2 = 0.2005 | 772.822 | 1.349
333.15 K, x2 = 0.3002 | 773.649 | 1.369
333.15 K, x2 = 0.4006 | 774.407 | 1.387
333.15 K, x2 = 0.5004 | 775.144 | 1.405
333.15 K, x2 = 0.6005 | 775.861 | 1.421
333.15 K, x2 = 0.6999 | 776.534 | 1.434
333.15 K, x2 = 0.7989 | 777.165 | 1.447
333.15 K, x2 = 0.8988 | 777.765 | 1.457
338.15 K, x2 = 0.1008 | 767.116 | 1.178
338.15 K, x2 = 0.2005 | 768.057 | 1.201
338.15 K, x2 = 0.3002 | 768.985 | 1.224
338.15 K, x2 = 0.4006 | 769.83 | 1.242
338.15 K, x2 = 0.5004 | 770.644 | 1.258
338.15 K, x2 = 0.6005 | 771.436 | 1.275
338.15 K, x2 = 0.6999 | 772.174 | 1.29
338.15 K, x2 = 0.7989 | 772.85 | 1.302
338.15 K, x2 = 0.8988 | 773.53 | 1.315
343.15 K, x2 = 0.1008 | 762.161 | 1.055
343.15 K, x2 = 0.2005 | 763.194 | 1.08
343.15 K, x2 = 0.3002 | 764.213 | 1.102
343.15 K, x2 = 0.4006 | 765.15 | 1.121
343.15 K, x2 = 0.5004 | 766.048 | 1.138
343.15 K, x2 = 0.6005 | 766.918 | 1.155
343.15 K, x2 = 0.6999 | 767.729 | 1.171
343.15 K, x2 = 0.7989 | 768.484 | 1.184
343.15 K, x2 = 0.8988 | 769.214 | 1.197
